Laboratory results as given in patent US7294509B2, “Pre-adipose cell lines” (Nestec S.A., priority 2000, dated 2007).

Columns and labels:
Assay type in all cases: cell-based, human
Chub-S7 cells [1] = test: Adipocyte marker gene expression by real-time RT-PCR during Chub-S7 cell differentiation; settings: for LPL mRNA fold-increase / aP2 mRNA fold-increase: day 17 as compared to day 0, 1 μM Dex alone or with 1 μM BRL49653 from day 3
Description: Adipocyte differentiation of Chub-S7 cells was tested under serum-free culture conditions. To promote pre-adipocyte differentiation, confluent cells were incubated with a basal medium (see Material and Methods) supplemented with 500 μM IBMX and 1 μM Dex for the first 3 days, and 1 μM of a PPARγ agonist (BRL49653) and 1 μM Dex from day 3 to 17. This condition was compared to the basal medium alone or supplemented with Dex plus IBMX from day 0 to 3 and Dex alone from day 3 to 17. To determine whether Chub-S7 cells were able to differentiate, the expression of adipocyte markers was assessed, by real-time RT-PCR, at different time points during cellular maturation. These markers included i) transcriptional factors involved in adipogenesis such as peroxisome proliferator-activated receptor γ (PPARγ) and CAAT/enhancer binding protein α (C/EBPα), ii) genes involved in lipid metabolism such as lipoprotein lipase (LPL) and adipocyte fatty acid binding protein (aP2), and finally iii) adipocyte secreted factors such as adipsin and leptin.
Chub-S7 cells were cultured from day 0 to 17 in the presence of the basal medium as defined in Material and Methods (m), or in the basal medium with 1 μM Dex plus 500 μM IBMX from day 0 to 3 and dexamethasone from day 3 to 17 (●) or supplemented with 1 μM BRL49653 (▪). The arrow indicates the day from which BRL49653 was added to the medium. Relative gene expression was quantified by real-time RT-PCR. Data are the means±SEM of values obtained at least in four separate experiments. […] Top panels show representative RT-PCRs performed at a number of cycle defined according to the linear amplification of the genes (see Material and Methods).
Cells were grown in a mixture of DMEM/F12 media supplemented with 10% FBS, 2 mM glutamine, 100 U/ml penicillin/streptamycin until confluency. For differentiation, cells were washed with PBS and cultured with a serum-free medium consisting of a mixture of DMEM/F12 media supplemented with 15 mM NaHCO3, 17 μM D-panthotenic acid, 15 mM Hepes, 33 μM biotin, 10 μg/ml transferrin, 1 nM triiodothyronin, 850 nM insulin and 500 μg/ml fetuin. This medium, referred to “basal medium” was supplemented with 1 μM dexamethasone (Dex) and 500 μM IBMX from day 0 to 3. Dex was maintained alone or with 1 μM BRL49653 from day 3 to 17 in order to promote differentiation. As stated in Results, oleic acid (OA) complexed with bovine serum albumin (BSA; ratio OA-to-BSA: 5: 1) was added to the medium containing BRL49653 from day 10 to 17. Lipid accumulation in differentiated cells was visualized by Oil red O staining as previously described (22). All the experiments on Chub-S7 cell characterization were performed between passages 18 and 32 (69 to 122 population doublings).
RNAs from Chub-S7 cells cultured from day 0 to 17 were extracted using the NucleoSpin® Total RNA Purification System (Macherey-Nagel, Oensingen Switzerland). Reverse transcription was performed with an input of 10 μg of total RNA using the 1st strand cDNA synthesis kit for RT-PCR (AMV; Roche Biomedical, Basel, Switzerland) with oligo d(T)15 as primer. Real-time reverse transcription-polymerase chain reaction analyses were performed in a fluorescent temperature cycler (GeneAmp® PCR 5700 Sequence Detection System; Applied Biosystem) according to the recommendations of the manufacturer. Briefly, after initial denaturation at 50° C. for 2 min and 95° C. for 10 min, reactions were cycled 40 times using the following parameters for all genes studied: 95° C. for 15s, primer annealing and extension at 60° C. for 1 min. SYBR Green I fluorescence was detected at the end of each cycle to monitor the amount of PCR product formed during that cycle. Primers used for the amplification of cDNAs of interest were synthesized by Mycrosynth (Windisch, Switzerland).
Cycle to cycle fluorescence emission was monitored and quantified using the GenAmp software provided by Applied Biosystem. […]

Chub-S7 cells [2] = test: Lipolysis (glycerol release) in differentiated Chub-S7 cells; settings: 1 μM isoproterenol, 1 h; day 17; cells differentiated with BRL49653
Description: Lipolytic capacity of differentiated cells was assessed by measuring glycerol release, after stimulation or not for 1 h with 1 μM isoproterenol (Iso), a non-specific β-adrenergic agonist. Cells were differentiated in the presence of BRL49653 alone.
A. Chub-S7 cells were differentiated in the presence of 1 μM Dex plus 500 μM IBMX from day 0 to 3 and dexamethasone plus 1 μM BRL49653 from day 3 to 17. Glycerol released in the medium was measured in the presence or in the absence of 1 μM isoproterenol. Data are the means of values obtained at least in four separate experiments. […] B. Chub-S7 cells were cultured from day 0 to 17 in the presence of the basal medium (m), or in the basal medium with 1 μM Dex plus 500 μM IBMX from day 0 to 3 and Dex from day3 to 17 (●) or supplemented with 1 μM BRL49653 (▪). Data are the means±SEM of values obtained at least in four separate experiments.
(iv) Glycerol-3-phosphate dehydrogenase activity and lipolysis measurements Glycerol-3-phosphate dehydrogenase (GPDH) activity measured at different times during the differentiation process of Chub-S7 cells was determined using the enzymatic assay previously described (23). Lipolysis was determined at day 17 after confluency. […] Glycerol released in the medium was measured using the glycerokinase enzymatic radiometric assay described by Bradley and Kaslow (24).

Chub-S7 cells [3] = test: Triglyceride accumulation in differentiated Chub-S7 cells (Oil red O staining); settings: 100 μM OA complexed with BSA, day 10 to 17, in differentiation medium containing BRL49653
Description: To study the ability of differentiated Chub-S7 cells to accumulate intracellular lipids, cells cultured for 17 days in the absence or in the presence of BRL49653 were fixed and stained with Oil-red O. Almost all the differentiated cells were able to accumulate at least one single lipid droplet and few of them presented large multilocular droplets (FIG. 10B).
Chub-S7 cells were grown in the presence of the basal medium with 1 μM dexamethasone plus 500 μM IBMX from day 0 to 3 and Dex from day 3 to 17 or supplemented with 1 μM BRL49653 alone or in the presence of 100 μM OA from day 10 to 17. At day 17, cells were fixed and triglycerides were visualized using the oil-red O staining. A: Staining of culture wells containing Chub-S7 cells differentiated under the conditions described above. B: Morphology of Chub-S7 cells differentiated with dexamethasone and BRL49653 or in the same medium supplemented with oleate (Magnitude 400×). Data are representative of at least 3 independent experiments.
Cells were grown in a mixture of DMEM/F12 media supplemented with 10% FBS, 2 mM glutamine, 100 U/ml penicillin/streptamycin until confluency. […]

SMILES	LPL mRNA fold-increase (Chub-S7 cells [1])	aP2 mRNA fold-increase (Chub-S7 cells [1])	also measured
CN(CCOc1ccc(CC2SC(=O)NC2=O)cc1)c1ccccn1 (centres unmarked) [BRL49653]	308 fold-increase	8372 fold-increase	leptin mRNA, higher in presence of BRL49653 compared to Dex alone (Chub-S7 cells [1]; day 17, 1 μM BRL49653): 2 fold
C[C@@H]1C[C@H]2[C@@H]3CCC4=CC(=O)C=C[C@]4(C)[C@@]3(F)[C@@H](O)C[C@]2(C)[C@@]1(O)C(=O)CO [Dex, Dexamethasone]	16 fold-increase	8 fold-increase	
CC(C)NCC(O)c1ccc(O)c(O)c1 (centres unmarked) [Iso, isoproterenol]			increase in lipolysis (glycerol release) (Chub-S7 cells [2]): 40.5%
CCCCCCCC/C=C\CCCCCCCC(=O)O [OA, oleic acid]			triglyceride content (Chub-S7 cells [3]): dramatic increase; expression of LPL, C/EBPα, aP2, leptin and adipsin induced by BRL49653 (Chub-S7 cells [1]; 100 μM OA day 10 to 17, data not shown): did not affect
